In brackets after ≈: the same amount, converted by molar mass. Several values for one entry are separate records, joined by “and”; a condition that tells them apart may be missing. Equal entries are not always repeated. Where two headings read alike, the source gives them in different places.

For one assay, the target named is T1, Escherichia coli MurA (Escherichia coli, UniProt P0A749).
T1 construct: made in house; host or cells: E. coli
Briefly: MurA inhibition, colorimetric malachite green method. The assay is classed as biochemical. The following applies: for remaining activity at 100 µM: 10 min, residual activity at 100 µM, read-out: RA % Escherichia coli MurA. As to the method:
(§1) Polymyxin, UDP-GlcNAc, D-Ala-D-Ala, PEP, ATP and Hepes were purchased from Sigma-Aldrich Co. (St Louis, MO, USA). UDP-MurNAc-L-Ala-D-Glu-m-DAP was obtained from BACWAN facility, School of Life Sciences, The University of Warwick, UK. MurA from E. coli and S. aureus were recombinant, expressed in E. coli, while MurF from E. coli and S. aureus were recombinant expressed in E. coli.
(§2) MurA inhibition was determined with the colorimetric malachite green method in which the release of orthophosphate generated during the reaction is measured. Briefly, 2.5 µL of each tested compound previously dissolved in DMSO at a concentration of 100 µM, were added in duplicate to 50 µL of the reaction mixture containing 50 mM HEPES pH 7.8, 0.005% Triton X-114, 200 µM UDP-GlcNAc, 100 µM PEP and purified MurA (200 nM) diluted in 50 mM Hepes at pH 7.8. The 50 µL reaction mixture for MurF inhibitory assay contained 50 mM Hepes pH 8.0, 50 mM MgCl2, 0.005% Triton X-114, 600 µM D-Ala-D-Ala, 100 µM UDP-MurNAc-L-Ala-D-Glu-m-DAP, 500 µM ATP and purified MurF (8 nM). Time-dependent inhibition assays were also performed. MurA was preincubated with substrate UDP-GlcNAc and target compounds for 10 min at 37 °C, and then the reaction was started by the addition of the second substrate PEP, resulting in a mixture with a final volume of 50 µL as above described. MurF was preincubated with compounds for 10 min at 37 °C, and the reaction was started by the addition of the above-mentioned substrates to get a mixture with a final volume of 50 µL, as already described. In both experiments, after incubation for 15 min at 37 °C, the reaction was stopped by adding Biomol® reagent (100 µL, Enzo Life Sciences, Inc., Farmingdale, NY, USA). The absorbance was measured at 650 nm after 5 min in a microplate reader (Synergy H4). The final concentration of DMSO in the reaction mixture was 5% (v/v). Fosfomycin was used as a reference in MurA assay. The percentage of RA was calculated in comparison to negative controls containing only 5% DMSO. […] The results are expressed as mean ± standard error.

Assay [1] addresses T2, Staphylococcus aureus MurA (Staphylococcus aureus, UniProt Q931H5).
T2 construct: made in house; host or cells: E. coli
T2 sequence (Q931H5 1-421): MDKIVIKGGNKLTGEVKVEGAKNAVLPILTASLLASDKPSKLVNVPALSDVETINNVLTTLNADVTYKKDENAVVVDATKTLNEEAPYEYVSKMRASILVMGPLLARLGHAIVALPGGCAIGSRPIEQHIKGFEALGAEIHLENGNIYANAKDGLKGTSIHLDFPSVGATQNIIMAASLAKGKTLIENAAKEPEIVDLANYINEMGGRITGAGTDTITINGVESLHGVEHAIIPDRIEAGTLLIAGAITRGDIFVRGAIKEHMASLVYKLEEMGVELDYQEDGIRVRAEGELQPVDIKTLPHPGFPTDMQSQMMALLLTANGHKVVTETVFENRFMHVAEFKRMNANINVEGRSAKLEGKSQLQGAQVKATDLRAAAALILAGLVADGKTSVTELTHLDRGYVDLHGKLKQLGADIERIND
Briefly: biochemical. The conditions noted are these: for remaining activity at 100 µM: 10 min. As to the method: as §1
as §2, with “Briefly, 2.5 µL of each tested compound previously dissolved in DMSO at a concentration of 100 µM, were added in duplicate to 50 µL of the reaction mixture containing 50 mM HEPES pH 7.8, 0.005% Triton X-114, 200 µM UDP-GlcNAc, 100 µM PEP and purified MurA (200 nM) diluted in 50 mM Hepes at pH 7.8. The 50 µL reaction mixture for MurF inhibitory assay contained 50 mM Hepes pH 8.0, 50 mM MgCl2, 0.005% Triton X-114, 600 µM D-Ala-D-Ala, 100 µM UDP-MurNAc-L-Ala-D-Glu-m-DAP, 500 µM ATP and purified MurF (8 nM).” left out

The test system of a further assay is E. coli (ATCC 25922). Briefly: Antibacterial susceptibility testing, MIC by broth microdilution, alone or with polymyxin B. The assay is classed as cell-based, Escherichia coli. The conditions noted are these: for MIC: Escherichia coli, read-out: MIC against E. coli; for MIC against E. coli with polymyxin B: with polymyxin B at sub-inhibitory concentration (half of the MIC, 0.49 µg/mL), permeabilized E. coli. The procedure:
Overnight subcultures of the test organism carried out on plate count agar medium (PCA) were used.
After 24 h incubation at 37 °C with continuous shaking, absorbance was measured with an iMark micro-plate reader (Bio-Rad, Hercules, CA, USA) at 655 nm. Compound 1 was dissolved in DMSO, while compounds 4 and 6 were dissolved in ethanol or acetonitrile (ACN), respectively. Negative controls containing dissolution solvents at a final concentration of 2% or polymyxin B at 0.49 µg/mL were simultaneously carried out, and the growth was compared to the viability control, which contained only a culture medium. […] The large size of this glycopeptide antibiotic avoids its entrance into Gram-negative bacteria, while the addition of polymyxin B overcomes this inconvenience.

The subject of assay [2] is methicillin-sensitive and resistant Staphylococcus aureus (MSSA and MRSA). The conditions noted are these: growth curves of treated MSSA and MRSA; cited from earlier work.
Setting [3] is: time of preincubation: 10 min, read-out: IC50 Escherichia coli MurA (converted).
The mark [4] stands for this setting: time of preincubation: 10 min, read-out: IC50 Staphylococcus aureus MurA (converted).
Setting [5] is: ATCC25922, compound alone, 24 h, 37 °C, Mueller–Hinton broth.
Setting [6] is: IC50 Escherichia coli MurA, time of preincubation: 10 min.
Where [7] appears, read: IC50 Staphylococcus aureus MurA, time of preincubation: 10 min.
Setting [8] is: residual activity at 100 µM, time of preincubation: 10 min, read-out: RA % Staphylococcus aureus MurA.

T1 sequence (P0A749 whole entry): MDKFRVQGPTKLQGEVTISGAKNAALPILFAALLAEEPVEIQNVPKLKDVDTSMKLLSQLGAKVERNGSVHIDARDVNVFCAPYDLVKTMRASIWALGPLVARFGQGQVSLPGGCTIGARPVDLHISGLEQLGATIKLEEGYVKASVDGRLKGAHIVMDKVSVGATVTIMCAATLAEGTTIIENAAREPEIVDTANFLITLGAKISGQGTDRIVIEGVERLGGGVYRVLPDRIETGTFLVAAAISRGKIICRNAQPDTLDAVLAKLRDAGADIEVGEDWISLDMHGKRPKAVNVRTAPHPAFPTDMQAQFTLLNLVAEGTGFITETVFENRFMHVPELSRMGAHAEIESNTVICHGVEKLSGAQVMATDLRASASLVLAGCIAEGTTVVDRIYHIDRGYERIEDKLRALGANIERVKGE

As for `CC(C)c1cc2c(c(O)c1O)[C@@]13CCCC(C)(C)[C@@H]1C[C@@H]2OC3=O` [Compound 1, carnosol], the IC50 is 66 µM on Escherichia coli MurA (time of preincubation = 0 min, read-out: IC50 Escherichia coli MurA (converted)); 2.8 µM at Escherichia coli MurA (setting [3]); 61 µM in assay [1] (time of preincubation = 0 min, read-out: IC50 Staphylococcus aureus MurA (converted)); 1.1 µM in assay [1] (setting [4]). In addition, the MIC in the assay with E. coli (ATCC 25922) (setting [5]) is greater than 250 µg/mL. Besides, the “MIC against E. coli with polymyxin B” value in the assay with E. coli (ATCC 25922) is given as 125 µg/mL.
For `CC(C)c1cc2c(c(O)c1O)[C@@]13CCCC(C)(C)[C@@H]1[C@H](OC3=O)[C@H]2O` [Compound 2, rosmanol], the IC50 on Escherichia coli MurA (setting [3]) is 12.9 µM; in assay [1] (setting [4]), 5.7 µM.
In the case of `CC(C)c1cc2c(c(O)c1O)[C@@]1(C(=O)O)CCCC(C)(C)[C@@H]1CC2` [Compound 3, carnosic acid], the IC50 is 25 µM and 25.1 µM on Escherichia coli MurA (setting [6]); 12 µM and 12.3 µM in assay [1] (setting [7]).
In the case of `COC(=O)[C@]12CCCC(C)(C)[C@@H]1CCc1cc(C(C)C)c(O)c(O)c12` [Compound 4, 20-methyl carnosate], the remaining activity at 100 µM is 0 to 28% at Escherichia coli MurA (time of preincubation: 10 min) and 0 to 28% in assay [1] (read-out: RA % Staphylococcus aureus MurA, residual activity at 100 µM, time of preincubation: 10 min). Further, the IC50 at Escherichia coli MurA (IC50 Escherichia coli MurA, time of preincubation = 0 min) is 48 µM; at Escherichia coli MurA (setting [6]), 2.8 µM; in assay [1] (IC50 Staphylococcus aureus MurA, time of preincubation = 0 min), 67 µM; in assay [1] (setting [7]), 3.4 µM. In addition, the MIC in the assay on E. coli (ATCC 25922) (setting [5]) is greater than 250 µg/mL. Moreover, in the assay with E. coli (ATCC 25922), the “MIC against E. coli with polymyxin B” value was found to be 3.9 µg/mL.
For `CC(C)c1cc2c3c(c1O)OC(=O)[C@@]31CCCC(C)(C)[C@@H]1CC2` [Compound 6, carnosic acid-γ-lactone], the IC50 on Escherichia coli MurA (setting [6]) is 4.8 µM; in assay [1] (setting [4]), 7.9 µM. Besides, the MIC in the assay with E. coli (ATCC 25922) (setting [5]) was greater than 250 µg/mL. Moreover, in the assay on E. coli (ATCC 25922), the “MIC against E. coli with polymyxin B” value worked out at 125 µg/mL.
On to `CC(C)c1cc2c(cc1O)[C@@]1(C)CCC[C@@](C)(C(=O)O)[C@@H]1CC2` [Compound 9, 12-hydroxy-dehydroabietic acid], for which the IC50 at Escherichia coli MurA (setting [3]) is 49.4 µM; in assay [1] (setting [7]), 55.2 µM.
`COC(=O)[C@]1(C)CCC[C@]2(C)c3cc(O)c(/C(C)=N/O)cc3CC[C@@H]12` [Compound 12]: the remaining activity at 100 µM in assay [1] (setting [8]) lay within 72 to 100%. Moreover, in assay [2], the “delay/reduction in the growth rate of MSSA and MRSA, until time” value is on record as “up to 6 h”.
`CC/C(=N\O)c1cc2c(cc1O)[C@@]1(C)CCC[C@@](C)(C(=O)OC)[C@@H]1CC2` [Compound 13]: the remaining activity at 100 µM in assay [1] (setting [8]) lay within 72 to 100%.
Consider `COC(=O)[C@]1(C)CCC[C@]2(C)c3cc(O)c(/C(C)=N/O)cc3/C(=N/O)C[C@@H]12` [Compound 14], for which the remaining activity at 100 µM in assay [1] (setting [8]) lay within 72 to 100%.
In the case of `CN[C@H](CC(C)C)C(=O)N[C@H]1C(=O)N[C@@H](CC(N)=O)C(=O)N[C@H]2C(=O)N[C@H]3C(=O)N[C@H](C(=O)N[C@H](C(=O)O)c4cc(O)cc(O)c4-c4cc3ccc4O)[C@H](O)c3ccc(c(Cl)c3)Oc3cc2cc(c3O[C@@H]2O[C@H](CO)[C@@H](O)[C@H](O)[C@H]2O[C@H]2C[C@](C)(N)[C@H](O)[C@H](C)O2)Oc2ccc(cc2Cl)[C@H]1O` [Vancomycin, vancomycin, reference compound], in the assay with E. coli (ATCC 25922) (ATCC25922, 24 h), the MIC is 250 µg/mL (≈ 173 µM). The “MIC against E. coli with polymyxin B” value against E. coli (ATCC 25922) came to 62.5 µg/mL.
`C[C@@H]1O[C@@H]1P(=O)(O)O` [fosfomycin, reference compound]: the remaining activity at 100 µM (at Escherichia coli MurA (time of preincubation: 10 min); in assay [1] (setting [8])) was 0% in each case. For the same molecule, the figures for the IC50 (at Escherichia coli MurA (setting [6]); in assay [1] (setting [4])) were 0.21 µM and 0.3 µM, respectively.

The IC50 is the concentration that inhibits the measured activity by half. One may read the MIC as the lowest concentration that inhibits growth of the organism.

These data come from PMC8698320, “Inhibition of MurA Enzyme from Escherichia coli and Staphylococcus aureus by Diterpenes from Lepechinia meyenii and Their Synthetic Analogs” (Antibiotics, 2021).
